Measurements taken from the NIST ThermoML archive (doi:10.1021/je400122k).
Numbers after ± are expanded uncertainties.

Conditions: Liquid; for speed of sound: Pulse-echo method; for mass density: Vibrating tube method

CCCCCCCCCCCCCCCC(=O)OC [methyl hexadecanoate]
speed of sound (313.15 K, 100 kPa): 1317.2 ± 5.4 m/s
mass density (313.15 K, 101.3 kPa): 849.9 ± 1 kg/m3
speed of sound (313.15 K, 10000 kPa): 1365.4 ± 5.6 m/s
mass density (313.15 K, 10000 kPa): 856.3 ± 1 kg/m3
speed of sound (313.15 K, 20000 kPa): 1411.5 ± 5.8 m/s
mass density (313.15 K, 20000 kPa): 861.8 ± 1.1 kg/m3
speed of sound (313.15 K, 30000 kPa): 1454.4 ± 6 m/s
mass density (313.15 K, 30000 kPa): 867.9 ± 1.1 kg/m3
speed of sound (313.15 K, 40000 kPa): 1494.8 ± 6.1 m/s
mass density (313.15 K, 40000 kPa): 872.1 ± 1.1 kg/m3
mass density (313.15 K, 50000 kPa): 878.4 ± 1.1 kg/m3
speed of sound (323.15 K, 100 kPa): 1283.4 ± 5.3 m/s
mass density (323.15 K, 101.3 kPa): 842.5 ± 1 kg/m3
speed of sound (323.15 K, 10000 kPa): 1333.7 ± 5.5 m/s
mass density (323.15 K, 10000 kPa): 849 ± 1 kg/m3
speed of sound (323.15 K, 20000 kPa): 1381.1 ± 5.7 m/s
mass density (323.15 K, 20000 kPa): 855.5 ± 1.1 kg/m3
speed of sound (323.15 K, 30000 kPa): 1425.2 ± 5.9 m/s
mass density (323.15 K, 30000 kPa): 861.4 ± 1.1 kg/m3
speed of sound (323.15 K, 40000 kPa): 1467.4 ± 6 m/s
mass density (323.15 K, 40000 kPa): 866.8 ± 1.1 kg/m3
speed of sound (323.15 K, 50000 kPa): 1506.9 ± 6.2 m/s
mass density (323.15 K, 50000 kPa): 871.8 ± 1.1 kg/m3
mass density (333.15 K, 101.3 kPa): 835.2 ± 1 kg/m3
mass density (333.15 K, 10000 kPa): 842 ± 1 kg/m3
mass density (333.15 K, 20000 kPa): 848.7 ± 1.1 kg/m3
mass density (333.15 K, 30000 kPa): 854.9 ± 1.1 kg/m3
mass density (333.15 K, 40000 kPa): 860.4 ± 1.1 kg/m3
mass density (333.15 K, 50000 kPa): 866.7 ± 1.1 kg/m3
speed of sound (343.15 K, 100 kPa): 1215.3 ± 5 m/s
mass density (343.15 K, 101.3 kPa): 827.8 ± 1 kg/m3
speed of sound (343.15 K, 10000 kPa): 1270.1 ± 5.3 m/s
mass density (343.15 K, 10000 kPa): 835.1 ± 1 kg/m3
speed of sound (343.15 K, 20000 kPa): 1319.7 ± 5.4 m/s
mass density (343.15 K, 20000 kPa): 842 ± 1.1 kg/m3
speed of sound (343.15 K, 30000 kPa): 1366.8 ± 5.6 m/s
mass density (343.15 K, 30000 kPa): 848.5 ± 1.1 kg/m3
speed of sound (343.15 K, 40000 kPa): 1410.5 ± 5.8 m/s
mass density (343.15 K, 40000 kPa): 854.4 ± 1.1 kg/m3
speed of sound (343.15 K, 50000 kPa): 1450.6 ± 5.9 m/s
mass density (343.15 K, 50000 kPa): 859.6 ± 1.1 kg/m3
mass density (353.15 K, 101.3 kPa): 820.4 ± 1 kg/m3
mass density (353.15 K, 10000 kPa): 827.7 ± 1 kg/m3
mass density (353.15 K, 20000 kPa): 835.1 ± 1.1 kg/m3
mass density (353.15 K, 30000 kPa): 841.7 ± 1.1 kg/m3
mass density (353.15 K, 40000 kPa): 847.9 ± 1.1 kg/m3
mass density (353.15 K, 50000 kPa): 853.8 ± 1.1 kg/m3
speed of sound (363.15 K, 100 kPa): 1150.1 ± 4.8 m/s
mass density (363.15 K, 101.3 kPa): 812.8 ± 1 kg/m3
speed of sound (363.15 K, 10000 kPa): 1208.9 ± 5 m/s
mass density (363.15 K, 10000 kPa): 820.3 ± 1 kg/m3
speed of sound (363.15 K, 20000 kPa): 1262.5 ± 5.2 m/s
mass density (363.15 K, 20000 kPa): 828 ± 1.1 kg/m3
speed of sound (363.15 K, 30000 kPa): 1311.1 ± 5.4 m/s
mass density (363.15 K, 30000 kPa): 835 ± 1.1 kg/m3
speed of sound (363.15 K, 40000 kPa): 1355.7 ± 5.6 m/s
mass density (363.15 K, 40000 kPa): 843.8 ± 1.1 kg/m3
speed of sound (363.15 K, 50000 kPa): 1400.9 ± 5.7 m/s
mass density (363.15 K, 50000 kPa): 848.6 ± 1.1 kg/m3
mass density (373.15 K, 101.3 kPa): 804.6 ± 1 kg/m3
mass density (373.15 K, 10000 kPa): 813.8 ± 1 kg/m3
mass density (373.15 K, 20000 kPa): 821.7 ± 1.1 kg/m3
mass density (373.15 K, 30000 kPa): 829 ± 1.1 kg/m3
mass density (373.15 K, 40000 kPa): 835.7 ± 1.1 kg/m3
mass density (373.15 K, 50000 kPa): 841.9 ± 1.1 kg/m3
speed of sound (383.15 K, 100 kPa): 1087.2 ± 4.5 m/s
mass density (383.15 K, 101.3 kPa): 797.4 ± 1 kg/m3
speed of sound (383.15 K, 10000 kPa): 1150.3 ± 4.8 m/s
mass density (383.15 K, 10000 kPa): 806.8 ± 1.1 kg/m3
speed of sound (383.15 K, 20000 kPa): 1207.5 ± 5 m/s
mass density (383.15 K, 20000 kPa): 815.1 ± 1.1 kg/m3
speed of sound (383.15 K, 30000 kPa): 1259.3 ± 5.2 m/s
mass density (383.15 K, 30000 kPa): 822.7 ± 1.1 kg/m3
speed of sound (383.15 K, 40000 kPa): 1310.8 ± 5.4 m/s
mass density (383.15 K, 40000 kPa): 829.6 ± 1.1 kg/m3
speed of sound (383.15 K, 50000 kPa): 1358.3 ± 5.6 m/s
mass density (383.15 K, 50000 kPa): 836.5 ± 1.1 kg/m3
speed of sound (393.15 K, 100 kPa): 1056.9 ± 4.4 m/s
speed of sound (393.15 K, 10000 kPa): 1121.2 ± 4.7 m/s
speed of sound (393.15 K, 20000 kPa): 1180.4 ± 4.9 m/s
speed of sound (393.15 K, 30000 kPa): 1234.2 ± 5.1 m/s
speed of sound (393.15 K, 40000 kPa): 1284.7 ± 5.3 m/s
speed of sound (393.15 K, 50000 kPa): 1334 ± 5.5 m/s
